One data set deals with PBMC from CLL patients. The data set can be described thus: CellTiter-Blue cell viability assay, cell toxicity in PBMC from CLL patients. Type of data set: cell-based. The following applies: Homo sapiens, 50 000 cells/well, cultured 24, 48 and 72 h (time of the IC50 not stated), % cytotoxicity vs 0.2% DMSO. As to the method:
(§1) Method for Measurement of Cell Toxicity
(§2) The CellTiter-Blue® Cell Viability Assay provides a homogeneous, fluorometric method for estimating the number of viable cells present in multi-well plates. The assay uses the indicator dye resazurin to measure the metabolic capacity of cells. Viable cells retain the ability to reduce resazurin into resorufin, which is highly fluorescent.
(§3) Stock solutions (10 or 100 mM in DMSO) of compounds were serially diluted 1:2 in 11 concentrations and 25 nL/well (100 mM stock) or 50 nL/well (10 mM stock) were acoustically dispensed in assay plates with an EDC acoustic dispenser. Final starting concentration in the assay was 20 μM (0.2% DMSO) or 100 μM (0.1% DMSO) for test compounds.
(§4) Peripheral blood mononuclear cells (PBMC) from CLL patients or healthy volunteers were seeded in assay plates (384-well black/clear, Greiner #781091) pre-dispensed with compounds, 25 μL/well, and cultured for 24, 48 and 72 h. The cell concentration was 50 000 cells/well for PBMC from CLL patients or healthy volunteers. After 24, 48 and 72 h culture, Celltiter Blue reagent was added (5 μL/well) and the plates were incubated for 2 h. The plates were read in an Envision fluorescence reader (PerkinElmer) with Ex544 nm/Em590 nm. Results were calculated as % cytotoxicity compared to background (cells treated with 0.2% DMSO).
(§5) Thus, IC50 values for cell toxicity in PBMC from CLL patients as well as healthy volunteers for some compounds of the invention are shown in Table 3.
A general note: Resazurin is reduced to fluorescent resorufin, in cell work by metabolically active cells.

Data set [1] in a line: CellTiter-Blue cell viability assay, cell toxicity in PBMC from healthy volunteers. The format is cell-based. The settings on record: human, 50 000 cells/well, cultured 24, 48 and 72 h (time of the IC50 not stated), % cytotoxicity vs 0.2% DMSO. As to the method: as §1, §2, §3, §4, §5

For 19 molecules, IC50 results are on record in US10550113B2, “2-phenyl-3H-imidazo[4,5-B]pyridine derivates useful as inhibitors of mammalian tyrosine kinase ROR1 activity” (Kancera AB, priority 2015, dated 2020).

Broadly, the IC50 is the concentration that inhibits the measured activity by half. Read a low IC50 as higher potency.

On to `CN(C)CCNC(=O)COc1ccc(-c2nc3c(N[C@H]4CCN(Cc5ccccc5)C4)c(Cl)cnc3[nH]2)cc1` [Example 2, 2-[4-(7-{[(3S)-1-benzylpyrrolidin-3-yl]amino}-6-chloro-3H-imidazo[4,5-b]pyridin-2-yl)phenoxy]-N-[2-(dimethylamino)ethyl]acetamide], for which the IC50 came to 1300 nM with PBMC from CLL patients and 13800 nM in data set [1].
For `CN(C)CCNC(=O)COc1ccc(-c2nc3c(NC4CCN(CCc5ccccc5)CC4)c(Cl)cnc3[nH]2)cc1` [Example 3, 2-[4-(6-chloro-7-{[1-(2-phenylethyl)piperidin-4-yl]amino}-3H-imidazo[4,5-b]pyridin-2-yl)phenoxy]-N-[2-(dimethylamino)ethyl]acetamide] the same measures were 1200 nM and 9900 nM.
For `CNC(=O)COc1ccc(-c2nc3c(NC4CCN(Cc5ccccc5)CC4)c(Cl)cnc3[nH]2)cc1` [Example 11, 2-(4-{7-[(1-benzylpiperidin-4-yl)amino]-6-chloro-3H-imidazo[4,5-b]pyridin-2-yl}phenoxy)-N-methylacetamide] the same measures were 440 nM and 14800 nM.
For `CN(C)CCNC(=O)COc1ccc(-c2nc3c(NC4CCN(Cc5ccsc5)CC4)c(Cl)cnc3[nH]2)cc1` [Example 15, 2-[4-(6-chloro-7-{[1-(thiophen-3-ylmethyl)piperidin-4-yl]amino}-3H-imidazo[4,5-b]pyridin-2-yl)phenoxy]-N-[2-(dimethylamino)ethyl]acetamide] the same measures were 790 nM and 13900 nM.
As for `CNC(=O)COc1ccc(-c2nc3c(N(C)C4CCN(Cc5ccccc5)CC4)c(Cl)cnc3[nH]2)cc1` [Example 19, 2-(4-{7-[(1-benzylpiperidin-4-yl)(methyl)amino]-6-chloro-3H-imidazo[4,5-b]pyridin-2-yl}phenoxy)-N-methylacetamide], the IC50 in the data set with PBMC from CLL patients was 3230 nM; in data set [1] it was more than 20000 nM.
In the same order, the values of `Cc1ccc(CN2CCC(Nc3c(Cl)cnc4[nH]c(-c5ccc(OCC(=O)NCC(C)(C)N(C)C)cc5)nc34)CC2)cc1` [Example 27, 2-[4-(6-chloro-7-{[1-(4-methylbenzyl)piperidin-4-yl]amino}-3H-imidazo[4,5-b]pyridin-2-yl)phenoxy]-N-[2-(dimethylamino)-2-methylpropyl]acetamide] are 1420 nM and 14100 nM.
With `CNC(=O)COc1ccc(-c2nc3c(N[C@H]4CCN(Cc5ccc(F)c(F)c5)C4)c(Cl)cnc3[nH]2)cc1` [Example 34, 2-[4-(6-chloro-7-{[(3S)-1-(3,4-difluorobenzyl)pyrrolidin-3-yl]amino}-3H-imidazo[4,5-b]pyridin-2-yl)phenoxy]-N-methylacetamide], the IC50 in the data set with PBMC from CLL patients came to 3110 nM; in data set [1] it was 17700 nM.
For `CNC(=O)COc1ccc(-c2nc3c(N[C@H]4CCN(Cc5ccc(OC)cc5)C4)c(Cl)cnc3[nH]2)cc1` [Example 43, 2-[4-(6-chloro-7-{[(3S)-1-(4-methoxybenzyl)pyrrolidin-3-yl]amino}-3H-imidazo[4,5-b]pyridin-2-yl)phenoxy]-N-methylacetamide] the same measures were 1740 nM and more than 20000 nM.
For `CNC(=O)COc1ccc(-c2nc3c(NC4CCN(C5CCCCC5)CC4)c(Cl)cnc3[nH]2)cc1` [Example 56, 2-(4-{6-chloro-7-[(1-cyclohexylpiperidin-4-yl)amino]-3H-imidazo[4,5-b]pyridin-2-yl}phenoxy)-N-methylacetamide] the same measures were 370 nM and more than 20000 nM.
In the same order, the values of `CN(C)C(=O)COc1ccc(-c2nc3c(N[C@H]4CCN(Cc5ccccc5)C4)c(Cl)cnc3[nH]2)cc1` [Example 64, 2-[4-(7-{[(3S)-1-benzylpyrrolidin-3-yl]amino}-6-chloro-3H-imidazo[4,5-b]pyridin-2-yl)phenoxy]-N,N-dimethylacetamide] are 890 nM and 13900 nM.
For the molecule `CNC(=O)COc1ccc(-c2nc3c(NC4CCN(Cc5ccncc5)CC4)c(Cl)cnc3[nH]2)cc1` [Example 71, 2-[4-(6-chloro-7-{[1-(pyridin-4-ylmethyl)piperidin-4-yl]amino}-3H-imidazo[4,5-b]pyridin-2-yl)phenoxy]-N-methylacetamide], the IC50 in the data set with PBMC from CLL patients was 1900 nM; in data set [1] it was more than 20000 nM.
For `CNC(=O)COc1ccc(-c2nc3c(NC4CCN(Cc5ccc(NC(C)=O)cc5)CC4)c(Cl)cnc3[nH]2)cc1` [Example 75, 2-[4-(7-{[1-(4-acetamidobenzyl)piperidin-4-yl]amino}-6-chloro-3H-imidazo[4,5-b]pyridin-2-yl)phenoxy]-N-methylacetamide] the same measures were 1120 nM and more than 20000 nM.
For `CNC(=O)COc1ccc(-c2nc3c(NC4CCN(Cc5ccc(C)cc5)CC4)c(Cl)cnc3[nH]2)cc1` [Example 82, 2-[4-(6-chloro-7-{[1-(4-methylbeiizyl)piperidin-4-yl]amino}-3H-imidazo[4,5-b]pyridin-2-yl)phenoxy]-N-methylacetamide] the same measures were 480 nM and more than 20000 nM.
For `CNC(=O)COc1ccc(-c2nc3c(NC4CCN(CCOc5ccccc5)CC4)c(Cl)cnc3[nH]2)cc1` [Example 96, 2-[4-(6-chloro-7-{[1-(2-phenoxyethyl)piperidin-4-yl]amino}-3H-imidazo[4,5-b]pyridin-2-yl)phenoxy]-N-methylacetamide] the same measures were 310 nM and 13600 nM.
With `CNC(=O)COc1ccc(-c2nc3c(NC4CCN(Cc5ccc(-n6cncn6)cc5)CC4)c(Cl)cnc3[nH]2)cc1` [Example 99, 2-{4-[6-chloro-7-({1-[4-(1H-1,2,4-triazol-1-yl)benzyl]piperidin-4-yl}amino)-3H-imidazo[4,5-b]pyridin-2-yl]phenoxy}-N-methylacetamide], the IC50 with PBMC from CLL patients is 270 nM; in data set [1] it was more than 20000 nM.
In the same order, the values of `CNC(=O)COc1cccc(-c2nc3c(NC4CCN(C)CC4)c(Cl)cnc3[nH]2)c1` [Example 117, 2-(3-{6-chloro-7-[(1-methylpiperidin-4-yl)amino]-3H-imidazo[4,5-b]pyridin-2-yl}phenoxy)-N-methylacetamide] are 320 nM and more than 20000 nM.
Take `CCN1CC[C@H](Nc2c(Cl)cnc3[nH]c(-c4ccc(OCC(=O)NC)cc4)nc23)C1` [Example 132, 2-[4-(6-chloro-7-{[(3S)-1-ethylpyrrolidin-3-yl]amino}-3H-imidazo[4,5-b]pyridin-2-yl)phenoxy]-N-methylacetamide]: the IC50 is 860 nM with PBMC from CLL patients and more than 20000 nM in data set [1].
For `CN1CCC(Nc2c(Cl)cnc3[nH]c(-c4ccc(OCC(=O)NCCC5CCOCC5)cc4)nc23)CC1` [Example 147, 2-(4-{6-chloro-7-[(1-methylpiperidin-4-yl)amino]-3H-imidazo[4,5-b]pyridin-2-yl}phenoxy)-N-[2-(tetrahydro-2H-pyran-4-yl)ethyl]acetamide] the same measures were 140 nM and more than 20000 nM.
For `CNC(=O)COc1ccc(-c2nc3c(NC4CCN(C)CC4)c(Br)cnc3[nH]2)c(C)c1` [Example 159, 2-(4-{6-bromo-7-[(1-methylpiperidin-4-yl)amino]-3H-imidazo[4,5-b]pyridin-2-yl}-3-methylphenoxy)-N-methylacetamide] the same measures were 310 nM and more than 20000 nM.
